# Source: PMC8752738, “A propolis-derived small molecule ameliorates metabolic syndrome in obese mice by targeting the CREB/CRTC2 transcriptional complex” (Nature Communications, 2022)
# Where “and” joins values, the source holds several entries; their conditions need not be identical. Identical values can stand only once.
# Assays:
# FGF21 = assay: Immunoblotting of plasma and liver FGF21; type: in vivo, mouse
# [1] = target: T1, GST-CREB / HA-P300 interaction (Homo sapiens, UniProt P16220); assay: GST-CREB pull-down of HA-P300 from HEK293T lysate; type: biochemical; conditions: APC 10 μM
# T1 construct: made in house; host or cells: GST-CREB beads (pGEX5X-1); HA-P300 expressed in HEK293T cells
# T1 sequence (P16220 whole entry): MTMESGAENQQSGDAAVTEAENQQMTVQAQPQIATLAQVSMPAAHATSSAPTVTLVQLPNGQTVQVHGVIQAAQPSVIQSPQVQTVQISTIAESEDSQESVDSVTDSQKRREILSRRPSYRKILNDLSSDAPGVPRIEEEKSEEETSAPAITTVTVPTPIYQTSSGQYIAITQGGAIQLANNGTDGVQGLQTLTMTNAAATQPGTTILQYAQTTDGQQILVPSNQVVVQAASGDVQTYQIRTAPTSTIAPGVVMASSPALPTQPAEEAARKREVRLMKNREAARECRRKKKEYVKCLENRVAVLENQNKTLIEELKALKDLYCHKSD
# T1 sequence (B2RWS6 whole entry partner): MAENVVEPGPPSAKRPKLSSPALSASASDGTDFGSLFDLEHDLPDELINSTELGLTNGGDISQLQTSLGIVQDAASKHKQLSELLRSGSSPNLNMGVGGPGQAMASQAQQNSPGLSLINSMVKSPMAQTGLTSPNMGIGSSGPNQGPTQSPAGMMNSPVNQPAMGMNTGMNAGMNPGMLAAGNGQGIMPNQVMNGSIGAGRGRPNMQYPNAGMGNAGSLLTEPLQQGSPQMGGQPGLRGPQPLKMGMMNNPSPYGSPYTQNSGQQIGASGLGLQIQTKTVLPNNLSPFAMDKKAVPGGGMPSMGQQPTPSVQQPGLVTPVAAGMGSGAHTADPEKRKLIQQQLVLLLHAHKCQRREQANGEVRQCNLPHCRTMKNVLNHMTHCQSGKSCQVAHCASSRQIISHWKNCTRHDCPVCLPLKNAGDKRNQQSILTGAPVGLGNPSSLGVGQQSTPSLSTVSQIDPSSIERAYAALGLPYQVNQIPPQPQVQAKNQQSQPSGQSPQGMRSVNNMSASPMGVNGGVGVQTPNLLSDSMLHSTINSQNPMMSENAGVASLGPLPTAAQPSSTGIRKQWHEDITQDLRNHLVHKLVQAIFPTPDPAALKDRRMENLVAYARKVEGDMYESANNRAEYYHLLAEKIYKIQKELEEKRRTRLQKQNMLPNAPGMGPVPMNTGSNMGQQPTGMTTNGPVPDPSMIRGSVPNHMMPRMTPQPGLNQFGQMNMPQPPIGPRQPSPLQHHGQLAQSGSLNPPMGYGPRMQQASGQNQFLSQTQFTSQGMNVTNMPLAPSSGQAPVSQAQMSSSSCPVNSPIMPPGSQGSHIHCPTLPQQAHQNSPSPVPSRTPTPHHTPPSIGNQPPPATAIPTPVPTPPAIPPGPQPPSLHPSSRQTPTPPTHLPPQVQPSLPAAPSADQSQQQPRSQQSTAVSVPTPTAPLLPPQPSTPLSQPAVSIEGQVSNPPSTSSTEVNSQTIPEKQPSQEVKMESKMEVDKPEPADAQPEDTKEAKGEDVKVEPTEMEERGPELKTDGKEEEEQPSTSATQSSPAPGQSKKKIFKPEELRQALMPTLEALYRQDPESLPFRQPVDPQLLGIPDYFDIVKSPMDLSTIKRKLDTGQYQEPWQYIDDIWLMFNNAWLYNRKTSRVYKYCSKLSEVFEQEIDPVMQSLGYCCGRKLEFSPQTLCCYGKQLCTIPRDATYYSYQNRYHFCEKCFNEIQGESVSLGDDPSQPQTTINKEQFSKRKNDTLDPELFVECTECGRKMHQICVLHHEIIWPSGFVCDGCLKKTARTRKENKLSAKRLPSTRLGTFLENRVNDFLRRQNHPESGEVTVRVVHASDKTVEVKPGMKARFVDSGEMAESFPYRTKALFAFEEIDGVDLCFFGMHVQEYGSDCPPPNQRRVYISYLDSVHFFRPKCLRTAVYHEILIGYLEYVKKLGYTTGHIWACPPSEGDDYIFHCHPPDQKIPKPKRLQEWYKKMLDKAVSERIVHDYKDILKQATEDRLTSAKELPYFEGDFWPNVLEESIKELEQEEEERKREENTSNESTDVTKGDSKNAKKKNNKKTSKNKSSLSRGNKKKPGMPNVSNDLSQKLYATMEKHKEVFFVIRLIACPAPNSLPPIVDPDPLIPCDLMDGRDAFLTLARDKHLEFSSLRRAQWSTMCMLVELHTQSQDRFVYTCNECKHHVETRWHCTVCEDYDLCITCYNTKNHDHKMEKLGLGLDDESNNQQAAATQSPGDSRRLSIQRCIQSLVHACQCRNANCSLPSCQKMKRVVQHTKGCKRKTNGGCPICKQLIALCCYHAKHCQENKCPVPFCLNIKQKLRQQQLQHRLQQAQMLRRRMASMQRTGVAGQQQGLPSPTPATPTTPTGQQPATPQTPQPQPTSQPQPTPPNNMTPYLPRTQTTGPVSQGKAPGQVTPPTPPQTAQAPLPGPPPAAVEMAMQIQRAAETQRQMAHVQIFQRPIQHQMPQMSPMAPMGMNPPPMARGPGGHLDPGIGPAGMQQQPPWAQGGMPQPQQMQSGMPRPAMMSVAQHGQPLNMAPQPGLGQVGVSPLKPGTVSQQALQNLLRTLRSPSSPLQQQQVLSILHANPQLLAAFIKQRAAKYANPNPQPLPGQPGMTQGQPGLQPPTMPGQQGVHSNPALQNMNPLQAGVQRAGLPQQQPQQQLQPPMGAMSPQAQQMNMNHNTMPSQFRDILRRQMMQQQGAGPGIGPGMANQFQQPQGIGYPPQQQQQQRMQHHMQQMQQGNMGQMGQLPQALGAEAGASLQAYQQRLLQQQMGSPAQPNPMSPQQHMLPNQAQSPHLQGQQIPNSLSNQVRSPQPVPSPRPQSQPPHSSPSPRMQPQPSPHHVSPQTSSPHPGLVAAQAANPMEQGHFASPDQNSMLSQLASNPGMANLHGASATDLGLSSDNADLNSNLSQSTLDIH
# Method: 1 Supplementary Figure 2.
# 2 a) Immunoblot of HA-P300 recovered from HEK293T cell lysate using GST-CREB beads. APC
# 3 (10 μM) was incubated with cells for 1-h before FKS (10 nM) stimulation and was included in the
# 4 following pull-down mixtures (n=3). One of two independent experiments presented here.
# 5 b) Immunoblot for recovered GFP-CRTC1 or (c) GFP-CRTC3 immunoprecipitated by MYC-CREB
# 6 from overexpression HEK293T cell line. APC (10 μM) was incubated with cells for 1-h before FKS
# 7 (10 nM) stimulation and was included in the following pull-down mixtures. One of two independent
# 8 experiments presented here.
# 9 d) SPR sonogram traces of APC binding with HIS-CREB proteins immobilized to NTA-chip. The
# 10 concentration series of APC was as indicated.
# 11 e) SPR sonogram traces of APC flowing through HIS-CRTC2-S171A proteins immobilized on
# 12 NTA-chip. The concentration of APC was as indicated.
# 13 f) The luciferase enzymatic activity of HEK293T incubated with APC. Cells over-expressed
# 14 luciferase CRE-Luc reporter and were stimulated by FSK (10 nM) for 5-h before lysis, which was
# 15 then incubated with APC (concentration indicated) for 30 min before luciferase activity determination
# 16 (n=3 per treatment). Data are represented as mean ± SEM. *, p < 0.05; **, p < 0.01; p values were
# 17 determined by one-way ANOVA followed Dunnett’s multiple comparisons test. […]
# G6pc promoter (G6p-Luc) = assay: G6p-Luc reporter in primary hepatocytes; type: cell-based, mouse; conditions: APC 10 μM, 8-h
# [2] = target: T2, MYC-CREB-ZIP / FLAG-CRTC2 interaction (Homo sapiens, UniProt P16220); assay: Immunoprecipitation of FLAG-CRTC2-WT with MYC-CREB-ZIP fragment; type: biochemical; conditions: for Relative FLAG/MYC in MYC-IP fraction: Fig 3c replicates, FSK +
# T2 construct: expressed in transfected cells; host or cells: HEK293
# T2 sequence (P16220 269-327 limits assumed): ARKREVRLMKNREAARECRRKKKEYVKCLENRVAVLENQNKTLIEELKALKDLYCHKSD
# From the text: Fig. 3 APC inhibits CRTC2 interacting with CREB-ZIP and reduces acetyltransferase activity of CBP by binding with CREB protein directly. a Isothermal titration calorimetry (ITC) of HIS-CREB protein solution titrated into APC solution. The bottom solid line represents a nonlinear least-squares fitted by a single-site binding model. One of two independent experiments is shown here. b IC50 of APC inhibitory activity detected by CREB–CRTC2 two-hybrid assay in HEK293T cells (n = 3 per treatment, data are represented as mean ± SEM). One of three independent experiments is shown here. c Immunoprecipitation analysis of FLAG-CRTC2-WT recovered by anti-MYC antibody from HEK293 cells co-transfected with plasmids for a Myc-Creb-Zip fragment and the FLAG-Crtc2-Wt, stimulated by FSK (10 nM) for 2-h before harvest. APC (1–10 μM) was included in immunoprecipitation mixtures as indicated. Top represents one of three independent experiments, and the relative gray density of FLAG normalized to MYC in MYC-IP- factions is shown as a bar graph (bottom, n = 3). Data are represented as mean ± SEM; P values were determined by one-way ANOVA followed Dunnett’s multiple comparisons test. d Immunoblotting analysis of the acetyltransferase activity of CBP. The protein levels of H3K27ac and total Histone H3 were determined using specific antibodies from HEK293 cell lysate overexpressing HA-Cbp plasmid. Pretreatment with trichostatin (TSA, 0.5 μM) for 1 h prior to incubation with APC (2, 10 μM) for another 2-h. The top represents one of three independent experiments, and the relative gray density of H3K27ac normalized to total Histone H3 in cell lysate is shown as a bar graph (bottom, n = 3). Data are represented as mean ± SEM; P values were determined by one-way ANOVA followed Dunnett’s multiple comparisons test. ns, P > 0.05; *P < 0.05; **P < 0.01. Sources data for this figure are provided as source data file.
# [3] = system: G6pc promoter (G6p-Luc) in the liver; assay: Live imaging of hepatic G6p-Luc reporter; type: in vivo, mouse
# From the text: Complete DNA sequences encoding human Creb and Crtc2 were cloned in the plasmids psc811 and psc804 to express BD-CREB and VP16AD-CRTC2 recombined proteins, respectively. GAL4-luciferase and RSV (Rous Sarcoma Virus)-Renilla were constructed using the pGL3 plasmid. pGEX5X-1 and pET28C were used to construct plasmids for GST- and HIS-tagged proteins expression, respectively. Adenoviruses encoding Ad-HA-Crtc2, Ad-GFP, and Ad-RSV-β-Gal (galactosidase) have been described previously. For infecting primary hepatocytes, 0.5–1 MOI adenovirus was employed. For live imaging experiments, 10^8 plaques forming units (pfu) Ad-G6P-Luc and 5 × 10^7 pfu Ad-RSV-β-gal adenovirus were delivered to mice by tail vein injection. Mice were then imaged on day 3–5 after adenovirus delivery.
# After two days of tail intravenously delivery of Ad-G6p-Luc (10^8 pfu) and Ad-RSV-β-Gal (5 × 10^7 pfu) adenoviruses, mice were orally administered propolis or i.p. injected with APC one dose per day for another 3 days. After 16 h fasting, mice were anesthetized using gaseous isoflurane (Abbott), were i.p. injected with 100 mg/kg sterile firefly D-luciferin (Biosynth AG), and 15 min later, imaged by IVIS-100 Imaging System and analyzed with Living Image Software (Xenogen). Liver lysates were prepared to determine β-Gal activity. Luciferase activity detected for each mouse was normalized to the β-Gal expression in the liver.
structure (smiles),measurement,setting,value
"CC(C)=CCc1cc(C=CC(=O)O)cc(CC=C(C)C)c1O [APC, 3,5-diprenyl-4-hydroxycinnamic acid]","liver FGF21 in WT, group mean (Mean 2)","FGF21; Supp. Fig.10 f down, WT mice, n=3, VEH mean 1.024",2.405
same,Bands density of FGF21 in the liver,"FGF21; Supp. Fig.10 f down, WT mice, oral, individual replicates, Veh about 1.02",2.277 and 2.103 and 2.8341
same,"Bands density, plasma FGF21 in WT","FGF21; Supp. Fig.10 f up, WT mice, individual replicates, VEH about 1.08",1.716 and 1.667 and 1.521
same,"Bands density, plasma FGF21 in WT, group mean (Mean 2)","FGF21; Supp. Fig.10 f up, WT mice, n=3, VEH mean 1.077",1.634
same,plasma and liver FGF21,"FGF21; wild-type control group, oral 20 mg/kg, 3 weeks",increased
same,association of CREB with P300,[1],little effect
same,CRTC2-S171A induced G6p-luciferase activity,G6pc promoter (G6p-Luc),reduced
same,FLAG-CRTC2 binding with MYC-CREB-ZIP domain,[2]; APC 1–10 μM,inhibited
same,Relative FLAG/MYC in MYC-IP fraction,[2]; APC 1 uM,3.874 and 3.872 and 3.786
same,Relative FLAG/MYC in MYC-IP fraction,[2]; APC 5 uM,3.592 and 3.454 and 3.26
same,Relative FLAG/MYC in MYC-IP fraction,[2]; APC 10 uM,2.4146 and 2.393 and 2.225
same,G6P-Luc reporter activity in the livers,"[3]; DIO mice, i.p. 20 mg/kg daily, 3 days",substantially decreased
same,"Relative G6P-LUC activity, folds (mean of column B)","[3]; Figure 8a right, group mean, n=5, VEH mean 0.996",0.402 folds
same,"Relative G6P-LUC activity, folds","[3]; Figure 8a right, individual mice, vs VEH",0.6379 folds and 0.1281 folds and 0.5105 folds and 0.3399 folds and 0.3902 folds
